What was measured:
[1] = target: T1, contraction response to angiotensin II at the isolated thoracic aorta of rabbit (Oryctolagus cuniculus, UniProt P34976); assay: In vitro angiotensin II antagonism, isolated rabbit thoracic aorta (Schild pA2); type: cell-based; conditions: Schild plot
T1 construct: A strip of thoracic aorta of a male rabbit (2.5-3.0 kg) was prepared by the usual method; from tissue; host or cells: rabbit thoracic aorta strip
T1 sequence (P34976 1-359): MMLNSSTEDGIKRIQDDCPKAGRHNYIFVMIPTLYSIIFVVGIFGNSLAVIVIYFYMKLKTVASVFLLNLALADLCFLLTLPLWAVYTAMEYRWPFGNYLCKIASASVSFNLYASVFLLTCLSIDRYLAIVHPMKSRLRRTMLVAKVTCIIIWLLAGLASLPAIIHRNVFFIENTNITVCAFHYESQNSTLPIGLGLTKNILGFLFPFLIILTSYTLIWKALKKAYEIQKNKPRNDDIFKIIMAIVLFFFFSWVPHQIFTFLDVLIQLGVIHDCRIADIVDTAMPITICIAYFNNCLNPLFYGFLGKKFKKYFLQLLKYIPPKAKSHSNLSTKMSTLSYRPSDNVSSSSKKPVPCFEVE
Excerpt: (§1) The angiotensin II antagonistic activities in vitro were compared on the basis of the intensities (pA2 value) of antagonizing the contraction response to angiotensin II at the isolated thoracic aorta of rabbit. The in vivo activities were examined by comparing the inhibitory effects on the hypertensive action by an exogenous angiotensin II in a non-anesthetized rat and the hypotensive effects of a renal hypertensive rat or a spontaneously hypertensive rat.
A strip of thoracic aorta of a male rabbit (2.5-3.0 kg) was prepared by the usual method and suspended in an organ bath containing well oxygenated Krebs-Henseleit solution at 37° C. The pA2 value was calculated according to the method described by H. O. Schild (British Journal of Pharmacology and Chemotherapeutics, 2, 189-206, 1947). A strip treated with 3-5 doses of a subject compound in an amount of 10^-6 M-10^-10 M and a strip treated with no drug were employed for obtaining a dose-response curve by angiotensin II. Log (dose ratio--1) was calculated from the shift of the dose-response curve of the subject compound, and pA2 value was obtained from the Schild plottings.

[2] = tested on: hypertensive action by angiotensin II; assay: Inhibition on the hypertensive action by an exogenous angiotensin II in conscious rats; type: in vivo, Spraque-Dawley (SD) male rats; conditions: oral; for ED50: Rattus norvegicus, within 6 hours after administration, read-out: ED50 (dose required for inhibiting the hypertensive action by angiotensin II to the extent of 50%); for inhibitory effect on the hypertensive action by angiotensin II: dose of 1 mg/kg or less, angiotensin II 0.1 μg/kg i.v.
Excerpt: as §1
Anesthetized Spraque-Dawley (SD) male rats were cannulated into a femoral artery and a femoral vein and used for the experiment at the time when it has elapsed at least 24 hours after the operation. The hypertensive action caused by angiotensin II (0.1 μg/kg) which has been administered through the vein catheter was measured under conscious and unrestrained condition before and after administration of the compound. The artery catheter was connected to a pressure transducer to measure a mean blood pressure, and the subject compounds were orally administered in the form of a homogeneous suspension in a 0.5% aqueous carboxymethyl cellulose solution.
The intensities of the inhibitory effects within 6 hours after administration of the compound were examined on the basis of the dose of the compound required for inhibiting the hypertensive action by angiotensin II to the extent of 50% (ED50 values).

Renal hypertensive rats = assay: Hypotensive effect in renal hypertensive rats (RHR); type: in vivo, Spraque-Dawley (SD) male rats; conditions: oral, 3 mg/kg
Method: Renal hypertensive rats, a model of high-renin hypertension, were prepared according to the method of J. L. Cangiano et al. (Journal of Pharmacology and Experimental Therapeutics, 208, 310-313, 1979). That is, the experiment was conducted with Spraque-Dawley (SD) male rats (250-300 g), which were ligated the left renal artery with a thread under the anesthetic condition, so that the systolic blood pressure was increased more than 150 mmHg on 1 week after the operation. The subject compounds were orally administered in the form of a homogeneous suspension in a 0.5% aqueous carboxymethylcellulose solution, and a mean blood pressure was measured in the same manner as in the paragraph 1-2. Heart rate was counted with a cardiotachmeter triggered by the arterial pulse.

[3] = tested on: spontaneously hypertensive rats; assay: Hypotensive effect in spontaneously hypertensive rats (SHR); type: in vivo, male spontaneously hypertensive rats; conditions: oral, 10 mg/kg
Method: The subject compounds were administered orally in the same manner as in the paragraph 1-3 to male spontaneously hypertensive rats (28 weeks old, Charles-River Co.), which were measured mean blood pressure and heart rate.

ddY male mice = assay: Antianxiety effect, light and dark box; type: in vivo; conditions: oral, 0.1 μg/kg, 1 hour
Method: (§2) The subject compounds were examined on their antianxiety effect with the light and dark box according to the method described by B. Costall et al. (Pharmacology Biochemistry and Behavior, 32, 777-785, 1989) and with the elevated plus maze by S. Pell et al. (Journal of Neuroscience Methods, 14, 149-167, 1985).
The subject compounds were administered orally to ddY male mice (4-5 weeks old) at a dose of 0.1-1000 μg/kg. After 1 hour they were placed in the light chamber of the light and dark box, and after 10 seconds the door at the boundary between the light chamber and the dark chamber was opened. The behavior of the animals in the light and dark box under a sound-proof condition for four minutes was observed and examined by comparing the measurements of latency to the dark chamber, shuttling between the light and dark chambers and duration in the light chamber with those in the group to which only a solvent was administered. The subject compounds were orally administered in the form of a homogeneous suspension or solution in a 0.5% aqueous carboxymethyl cellulose solution.

[4] = tested on: electric shock induced amnesia mice; assay: Cognitive enhancing effect, step through passive avoidance in electric shock induced amnesia mice; type: in vivo, ddY strain male mice; conditions: oral, 10 μg/kg
Method: In order to examine the influence of the compounds on the learning and memory facilitating, an amnesia model with use of electric shock in a step through type passive avoidance box (PA-M5 model; OBARA IKA-SANGYOSHA) in accordance with the method described by C. Giurgea et al. (Progressive of Neuropsychopharmacology, 1, 235-247 (1977)) was used.
The subject compounds were orally administered at a dose of 1 ng/kg -1 mg/kg in the form of a homogeneous suspension in a 0.5% aqueous carboxymethylcellulose solution to ddY strain male mice (4-5 weeks) 1 hour before acquisition-trial and 1 hour before retrievaltrial. The animal was first placed in the light chamber, and the door at the boundary between the light and dark chamber was opened after 30 seconds. At the same time as the animal stepped into the dark chamber, electric footshock (40 V) was delivered to the floor of the dark chamber so that the animal acquired avoidance response (acquisition-trial). […] That is, the animal was placed again in the light chamber, the door was opened after 30 seconds, and the latency of the animal into the dark -chamber was measured for up to 600 seconds, so that the time was compared with that of the solvent administered group in which amnesia had been caused by electric shock.

[5] = Toxicity test, oral, mice; conditions: mouse, in vivo, ddY male mice 5 weeks old
Method: Several compounds of the present invention represented by the general formula (I) were administered orally by compulsion to ddY male mice of 5 weeks old (average weight, ca. 20 g).

Fisher 344 male rats = assay: Antianxiety effect, elevated plus maze; type: in vivo; conditions: oral, 1 μg/kg, 1 hour
Method: as §2
To Fisher 344 male rats (5-6 weeks old), the subject compounds were orally administered at a dose of 1-100 μg/kg in the form of a homogeneous suspension or solution in a 0.5% aqueous carboxymethyl cellulose solution. Among the four arms of the elevated plus maze (a device in which four arms are intersected crosswise and connected together at a height of 50 cm from the floor), the two arms with side walls are referred to as closed arms and the two arms without side walls are referred to as open arms. […] As the indices of the behavior, the latency until stepped out from the arm first placed to the other arm and the durations in the respective arms were measured, and the other behaviors were recorded. Diazepam was used as a control agent, and the drug administered group and the solvent administered group (group to which a 0.5% aqueous carboxymethyl cellulose solution was administered)were compared for the behaviors.

SD female rats = conditions: rat, in vivo, po, 100 mg/kg

Compound | Kb [1] | ED50 [2] | inhibitory effect on the hypertensive action by angiotensin II [2] | depression of blood pressure (Renal hypertensive rats) | hypotensive effect (Renal hypertensive rats) | depression of blood pressure [3] | hypotensive effect [3] | duration in the light chamber (ddY male mice) | latency to the dark chamber (ddY male mice) | latency into the dark chamber (passive avoidance response) [4] | LD50 [5] | duration out of the closed arm (Fisher 344 male rats) | transitions (Fisher 344 male rats) | symptom of toxicity (SD female rats)
COc1c(OCc2ccc(-c3ccccc3-c3nnn[nH]3)cc2)cc(C)nc1C [Example 11, 3-methoxy-2,6-dimethyl-4-[2'-(tetrazol-5-yl)biphenyl-4-yl]methoxypyridine] | 6.31 nM | 0.54 mg/kg | significant inhibitory effects | 20-26% | significant long-lasting hypotensive effect | approximately 20% | significant hypotensive effect | increased | increased | significant prolongation of the latency into the dark chamber | > 1000 mg/kg |  |  | 
CCOC(=O)c1c(OCc2ccc(-c3ccccc3-c3nnn[nH]3)cc2)cc(C)nc1CC [Example 45, 3-ethoxycarbonyl-2-ethyl-6-methyl-4-[2'-(tetrazol-5-yl)-biphenyl-4-yl]methoxypyridine] | 6.76 nM | 0.52 mg/kg | significant inhibitory effects | 20-26% | significant long-lasting hypotensive effect | approximately 20% | significant hypotensive effect |  |  |  | > 1000 mg/kg | increasing tendency | significant increase | no symptom of toxicity was observed
